Measured values from paper PMC5807063 (Science (New York, N.Y.), 2017).

Legend:
[1] = biological target: T1, purified HNE (human neutrophil elastase) (Homo sapiens, UniProt P08246); assay: Inhibition of purified human neutrophil elastase
T1 sequence (P08246 30-267): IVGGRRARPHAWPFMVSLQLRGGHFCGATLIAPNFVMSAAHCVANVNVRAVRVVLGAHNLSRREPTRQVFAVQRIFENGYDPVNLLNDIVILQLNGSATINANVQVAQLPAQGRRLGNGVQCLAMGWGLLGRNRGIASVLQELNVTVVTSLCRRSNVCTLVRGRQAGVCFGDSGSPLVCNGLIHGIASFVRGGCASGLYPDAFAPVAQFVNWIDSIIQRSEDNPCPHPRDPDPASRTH

HNE in CF patient sputum = biological target: T2, HNE in CF patient sputum (Homo sapiens, UniProt P08246); assay: HNE inhibition in CF patient sputum; details: sputum samples of CF patients
T2 sequence (P08246 30-267): T1 sequence (P08246 30-267)

BAY 85-8501 [compound 54] was tested, and the “HNE inhibitory activity (in words)” value [1] was “low IC50 values” and the “inhibitory activity in CF patient sputum (in words)” value (HNE in CF patient sputum) was “potencies diminished”.
